Assay results from patent US12448375B2, “Kinase inhibitors for the treatment of neurodegenerative diseases” (Ohio State Innovation Foundation, priority 2019, dated 2025).

Columns and labels:
Type in all cases: biochemical
Conditions in all cases: HotSpot radiometric assay, 33P-ATP
JNK3 = biological target: T1, JNK3 (Homo sapiens, UniProt P53779); assay: HotSpot Kinase Assay (Reaction Biology Corp.), anti-JNK3 activity
T1 construct: purchased Reaction Biology Corp
Description: (§1) The anti-JNK3 activity of compounds prepared as in the previous examples was evaluated using a Reaction Biology Corp. HotSpot Kinase Assay. Base reaction buffer was 20 mM HEPES (4-(2-hydroxyethyl)-1-piperazineethanesulfonic acid) at pH 7.5 with 10 mM MgCl2, 1 mM EGTA (ethylene glycol-bis(β-aminoethyl ether)-N,N,N′,N′-tetracetic acid), 0.02% Brij™ 35, 0.02 mg/mL BSA (bovine serum albumin), 0.1 mM Na3VO4, 2 mM DTT (dithiothreitol), and 1% DMSO. Required cofactors were added individually to each kinase reaction.
(§2) Activity against related enzymes JNK1 and P38a was further assessed using the same assay.

JNK1 = biological target: T2, JNK1 (Homo sapiens, UniProt P45983); assay: HotSpot Kinase Assay, JNK1
T2 construct: purchased Reaction Biology Corp
Description: as §1, §2

p38a = biological target: T3, p38a (Homo sapiens, UniProt Q16539); assay: HotSpot Kinase Assay, P38a
T3 construct: purchased Reaction Biology Corp
Description: as §1, §2

T1 sequence (P53779 whole entry): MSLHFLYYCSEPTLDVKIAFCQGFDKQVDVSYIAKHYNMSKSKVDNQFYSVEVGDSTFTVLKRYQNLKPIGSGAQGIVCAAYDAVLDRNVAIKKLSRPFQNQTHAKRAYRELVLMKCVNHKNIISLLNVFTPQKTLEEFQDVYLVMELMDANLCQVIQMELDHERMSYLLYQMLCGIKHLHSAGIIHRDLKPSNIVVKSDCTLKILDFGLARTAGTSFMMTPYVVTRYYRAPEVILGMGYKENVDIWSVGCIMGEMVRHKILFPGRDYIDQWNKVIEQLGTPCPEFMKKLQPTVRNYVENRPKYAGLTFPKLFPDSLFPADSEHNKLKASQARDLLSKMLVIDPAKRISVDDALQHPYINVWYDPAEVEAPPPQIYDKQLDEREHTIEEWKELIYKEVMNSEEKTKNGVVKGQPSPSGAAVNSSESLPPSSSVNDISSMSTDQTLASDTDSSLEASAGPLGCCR
T3 sequence (Q16539 whole entry): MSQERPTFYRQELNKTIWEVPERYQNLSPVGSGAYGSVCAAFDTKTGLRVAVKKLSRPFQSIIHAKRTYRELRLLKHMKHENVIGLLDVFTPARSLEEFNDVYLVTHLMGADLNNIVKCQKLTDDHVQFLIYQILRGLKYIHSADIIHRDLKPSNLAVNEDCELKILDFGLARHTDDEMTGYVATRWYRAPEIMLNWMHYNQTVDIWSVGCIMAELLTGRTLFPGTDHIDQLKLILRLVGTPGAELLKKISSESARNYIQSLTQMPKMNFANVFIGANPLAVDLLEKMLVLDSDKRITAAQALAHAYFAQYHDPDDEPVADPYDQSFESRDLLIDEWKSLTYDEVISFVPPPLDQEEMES
T2 sequence (P45983 whole entry): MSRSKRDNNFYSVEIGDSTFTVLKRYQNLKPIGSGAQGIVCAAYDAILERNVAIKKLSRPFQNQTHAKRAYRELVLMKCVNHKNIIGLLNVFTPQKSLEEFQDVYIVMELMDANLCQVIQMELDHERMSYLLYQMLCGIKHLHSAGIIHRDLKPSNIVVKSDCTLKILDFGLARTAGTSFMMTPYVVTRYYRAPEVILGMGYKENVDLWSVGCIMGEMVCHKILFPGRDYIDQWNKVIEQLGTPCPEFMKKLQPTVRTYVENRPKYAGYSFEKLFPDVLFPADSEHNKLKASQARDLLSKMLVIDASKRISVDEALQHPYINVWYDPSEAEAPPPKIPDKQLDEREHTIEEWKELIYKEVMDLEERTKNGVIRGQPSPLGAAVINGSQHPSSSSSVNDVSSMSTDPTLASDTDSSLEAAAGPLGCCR

IC50 (JNK3) [nM] | IC50 (JNK1) [nM] | IC50 (p38a) [nM] | SMILES
200 to 1000 |  |  | Cn1ccnc1NC(=O)c1cc(-n2ncc3nc(Nc4ccccc4Cl)ccc32)cs1 [Compound 59, 4-(5-((2-chlorophenyl)amino)-1H-pyrazolo[4,3-b]pyridin-1-yl)-N-(1-methyl-1H-imidazol-2-yl)thiophene-2-carboxamide]
< 200 |  |  | CN1CCN=C1NC(=O)c1cc(-n2ncc3cc(Nc4ccccc4Cl)ccc32)cs1 [Compound 45, 4-(5-((2-chlorophenyl)amino)-1H-indazol-1-yl)-N-(1-methyl-4,5-dihydro-1H-imidazol-2-yl)thiophene-2-carboxamide]
200 to 1000 |  |  | CNC(=O)c1cc(-n2ncc3nc(Nc4ccccc4Cl)ncc32)cs1 [Compound 41, 4-(5-((2-chlorophenyl)amino)-1H-pyrazolo[4,3-d]pyrimidin-1-yl)-N-methylthiophene-2-carboxamide]
< 200 |  |  | CNC(=O)c1cc(-n2ncc3cc(Nc4cccc(F)c4Cl)ncc32)cs1 [Compound 24, 4-(5-((2-chloro-3-fluorophenyl)amino)-1H-pyrazolo[3,4-c]pyridin-1-yl)-N-methylthiophene-2-carboxamide]
< 200 |  |  | Cn1ccnc1NC(=O)c1cc(-n2ncc3cc(Nc4ccccc4Cl)cnc32)cs1 [Compound 67, 4-(5-((2-chlorophenyl)amino)-1H-pyrazolo[3,4-b]pyridin-1-yl)-N-(1-methyl-1H-imidazol-2-yl)thiophene-2-carboxamide]
< 200 |  |  | O=C(NC1COC1)c1cc(-n2ncc3cc(Nc4ccccc4Cl)ncc32)cs1 [Compound 20, 4-(5-((2-chlorophenyl)amino)-1H-pyrazolo[3,4-c]pyridin-1-yl)-N-(oxetan-3-yl)thiophene-2-carboxamide]
< 200 | 200 to 1000 | < 200 | CC(=O)N1CC[C@H](NC(=O)c2cc(-n3ncc4cc(Nc5ccccc5Cl)c(F)cc43)cs2)C1 [Compound 40, (S)—N-(1-acetylpyrrolidin-3-yl)-4-(5-((2-chlorophenyl)amino)-6-fluoro-1H-indazol-1-yl)thiophene-2-carboxamide]
< 200 | 200 to 1000 | < 200 | CC(=O)N1CC(NC(=O)c2cc(-n3ncc4cc(Nc5ccccc5Cl)cnc43)cs2)C1 [Compound 71, N-(1-acetylazetidin-3-yl)-4-(5-((2-chlorophenyl)amino)-1H-pyrazolo[3,4-b]pyridin-1-yl)thiophene-2-carboxamide]
< 200 |  |  | CCNC(=O)c1cc(-n2ncc3cc(Nc4ccccc4Cl)ncc32)cs1 [Compound 26, 4-(5-((2-chlorophenyl)amino)-1H-pyrazolo[3,4-c]pyridin-1-yl)-N-ethylthiophene-2-carboxamide]
< 200 | 200 to 1000 | 200 to 1000 | CNC(=O)c1cc(-n2ncc3cc(Nc4ccccc4Cl)c(C)nc32)cs1 [Compound 76, 4-(5-((2-chlorophenyl)amino)-6-methyl-1H-pyrazolo[3,4-b]pyridin-1-yl)-N-methylthiophene-2-carboxamide]
< 200 | 200 to 1000 | 200 to 1000 | COCCNC(=O)c1cc(-n2ncc3nc(Oc4ccccc4Cl)ccc32)cs1 [Compound 56, 4-(5-(2-chlorophenoxy)-1H-pyrazolo[4,3-b]pyridin-1-yl)-N-(2-methoxyethyl)thiophene-2-carboxamide]
< 200 |  |  | O=C(N[C@H]1CCOC1)c1cc(-n2ncc3nc(Nc4ccccc4Cl)ccc32)cs1 [Compound 51, (S)-4-(5-((2-chlorophenyl)amino)-1H-pyrazolo[4,3-b]pyridin-1-yl)-N-(tetrahydrofuran-3-yl)thiophene-2-carboxamide]
< 200 | 200 to 1000 | > 1000 | Cc1sc(C(=O)NC2COC2)cc1-n1ncc2cc(Nc3ccccc3Cl)cnc21 [Compound 68, 4-(5-((2-chlorophenyl)amino)-1H-pyrazolo[3,4-b]pyridin-1-yl)-5-methyl-N-(oxetan-3-yl)thiophene-2-carboxamide]
< 200 |  |  | Cn1cnc(NC(=O)c2cc(-n3ncc4cc(Nc5ccccc5Cl)ncc43)cs2)c1 [Compound 19, 4-(5-((2-chlorophenyl)amino)-1H-pyrazolo[3,4-c]pyridin-1-yl)-N-(1-methyl-1H-imidazol-4-yl)thiophene-2-carboxamide]
< 200 | < 200 | < 200 | O=C(NCC(F)F)c1cc(-n2ncc3cc(Nc4ccccc4Cl)c(F)cc32)cs1 [Compound 39, 4-(5-((2-chlorophenyl)amino)-6-fluoro-1H-indazol-1-yl)-N-(2,2-difluoroethyl)thiophene-2-carboxamide]
> 1000 | > 1000 | > 1000 | COCC(COC)NC(=O)c1cc(-n2ncc3nc(Oc4ccccc4Cl)ccc32)cs1 [Compound 48, 4-(5-(2-chlorophenoxy)-1H-pyrazolo[4,3-b]pyridin-1-yl)-N-(1,3-dimethoxypropan-2-yl)thiophene-2-carboxamide]
< 200 | > 1000 | 200 to 1000 | O=C(NC1COC1)c1cc(-n2ncc3cc(Nc4ccccc4Cl)c(F)cc32)cs1 [Compound 34, 4-(5-((2-chlorophenyl)amino)-6-fluoro-1H-indazol-1-yl)-N-(oxetan-3-yl)thiophene-2-carboxamide]

IC50 (JNK3) [nM] | IC50 (JNK1) [nM] | IC50 (p38a) [nM] | SMILES
> 1000 | > 1000 | > 1000 | CC(C)NC(=O)c1cc(-n2ncc3nc(Oc4ccccc4Cl)ncc32)cs1 [Compound 47, 4-(5-(2-chlorophenoxy)-1H-pyrazolo[4,3-d]pyrimidin-1-yl)-N-isopropylthiophene-2-carboxamide]
< 200 |  |  | N#CCNC(=O)c1cc(-n2ncc3cc(Nc4ccccc4Cl)ccc32)cs1 [Compound 46, 4-(5-((2-chlorophenyl)amino)-1H-indazol-1-yl)-N-(cyanomethyl)thiophene-2-carboxamide]
< 200 | 200 to 1000 | 200 to 1000 | CNC(=O)c1cc(-n2ncc3cc(N(C)c4ccccc4OC)c(F)cc32)cs1 [Compound 75, 4-(6-fluoro-5-((2-methoxyphenyl)(methyl)amino)-1H-indazol-1-yl)-N-methylthiophene-2-carboxamide]
< 200 |  |  | COC(=O)N1CC(NC(=O)c2cc(-n3ncc4cc(Nc5ccccc5Cl)ccc43)cs2)C1 [Compound 33, Methyl 3-(4-(5-((2-chlorophenyl)amino)-1H-indazol-1-yl)thiophene-2-carboxamido)azetidine-1-carboxylate]
< 200 |  |  | O=C(NCCCF)c1cc(-n2ncc3nc(Nc4ccccc4Cl)ncc32)cs1 [Compound 42, 4-(5-((2-chlorophenyl)amino)-1H-pyrazolo[4,3-d]pyrimidin-1-yl)-N-(3-fluoropropyl)thiophene-2-carboxamide]
< 200 |  |  | CCNC(=O)c1cc(-n2ncc3cc(Oc4ccccc4Cl)ncc32)cs1 [Compound 18, 4-(5-(2-chlorophenoxy)-1H-pyrazolo[3,4-c]pyridin-1-yl)-N-ethylthiophene-2-carboxamide]
< 200 |  |  | Cn1cnc(NC(=O)c2cc(-n3ncc4nc(Nc5ccccc5Cl)ccc43)cs2)c1 [Compound 57, 4-(5-((2-chlorophenyl)amino)-1H-pyrazolo[4,3-b]pyridin-1-yl)-N-(1-methyl-1H-imidazol-4-yl)thiophene-2-carboxamide]
200 to 1000 |  |  | O=C(NC1COC1)c1cc(-n2ncc3cc(Oc4ccccc4Cl)ncc32)cs1 [Compound 23, 4-(5-(2-chlorophenoxy)-1H-pyrazolo[3,4-c]pyridin-1-yl)-N-(oxetan-3-yl)thiophene-2-carboxamide]
< 200 |  |  | CNC(=O)c1cc(-n2ncc3cc(Oc4ccccc4Cl)ncc32)cs1 [Compound 15, 4-(5-(2-chlorophenoxy)-1H-pyrazolo[3,4-c]pyridin-1-yl)-N-methylthiophene-2-carboxamide]
< 200 |  |  | CC(=O)N1CC(NC(=O)c2cc(-n3ncc4cc(Nc5ccccc5Cl)ncc43)cs2)C1 [Compound 22, N-(1-acetylazetidin-3-yl)-4-(5-((2-chlorophenyl)amino)-1H-pyrazolo[3,4-c]pyridin-1-yl)thiophene-2-carboxamide]
< 200 |  |  | Cn1cnc(NC(=O)c2cc(-n3ncc4cc(Nc5ccccc5Cl)cnc43)cs2)c1 [Compound 66, 4-(5-((2-chlorophenyl)amino)-1H-pyrazolo[3,4-b]pyridin-1-yl)-N-(1-methyl-1H-imidazol-4-yl)thiophene-2-carboxamide]
< 200 |  |  | CCNC(=O)c1cc(-n2ncc3cc(Oc4ccccc4Cl)cnc32)cs1 [Compound 73, 4-(5-(2-chlorophenoxy)-1H-pyrazolo[3,4-b]pyridin-1-yl)-N-ethylthiophene-2-carboxamide]
< 200 |  |  | CN1C[C@@H](NC(=O)c2cc(-n3ncc4nc(Nc5ccccc5Cl)ccc43)cs2)CC1=O [Compound 60, (S)-4-(5-((2-chlorophenyl)amino)-1H-pyrazolo[4,3-b]pyridin-1-yl)-N-(1-methyl-5-oxopyrrolidin-3-yl)thiophene-2-carboxamide]
< 200 |  |  | CC(=O)N1CC(NC(=O)c2cc(-n3ncc4cc(Nc5ccccc5Cl)ccc43)cs2)C1 [Compound 29, N-(1-acetylazetidin-3-yl)-4-(5-((2-chlorophenyl)amino)-1H-indazol-1-yl)thiophene-2-carboxamide]
< 200 |  |  | CN1CCN=C1NC(=O)c1cc(-n2ncc3cc(Nc4ccccc4Cl)ncc32)cs1 [Compound 21, 4-(5-((2-chlorophenyl)amino)-1H-pyrazolo[3,4-c]pyridin-1-yl)-N-(1-methyl-4,5-dihydro-1H-imidazol-2-yl)thiophene-2-carboxamide]
< 200 |  |  | O=C(NC1=NCCO1)c1cc(-n2ncc3cc(Nc4ccccc4Cl)c(F)cc32)cs1 [Compound 43, 4-(5-((2-chlorophenyl)amino)-6-fluoro-1H-indazol-1-yl)-N-(4,5-dihydrooxazol-2-yl)thiophene-2-carboxamide]
